We go through nine molecules from patent publication US20090075313A1, “Split protein fragments, split protein systems, methods of making split protein systems, and methods of using split protein systems” (Stanford University, priority 2007, published 2009).

For data set [1], the target named is FM (F36M) mutant FKBP12 (Homo sapiens, UniProt P62942, F37M).
Source text: (§1) Twenty-four hours later we added FK506 to these cells and, using an in vitro [8-^3H]Penciclovir cell uptake assay, measured either the time- or dose-dependent changes in homodimer dissociation and consequent diminished TK complementation.
as §1

Data set [2] has as its target FKBP12 (Homo sapiens, UniProt P62942). Conditions: stable 293T cells, with 40 nM rapamycin, 36 h.
Data set [3] deals with human estrogen receptor ligand-binding domain (hER-LBD). As to the kind of experiment: intramolecular protein folding sensor (split TK fragments flanking ER-LBD), TK enzyme uptake in 293T cells. It counts as cell-based. The protocol:
FIG. 2b illustrates a schematic diagram of the intramolecular folding sensor construct with the split TK fragments on either side of the estrogen receptor ligand binding domain (ER-LBD), and each construct was made by cloning into a pcDNA3.1 (+) plasmid backbone, under control of a CMV promoter. […] The error bar is the standard error of the mean for three samples.
All experiments were conducted with comparison to a positive control derived from the activity of intact TK, and a mock transfection acting as a negative control.

For data set [4], the system named is 293T cells stably expressing nTK(V119C)-FRB plus FKBP12-cTK. As to the kind of experiment: microPET imaging with [18F]-FHBG of subcutaneous 293T xenografts in living mice. Format: in vivo. The text has this:
The signal from each implant was quantified directly from the microPET images to determine the % ID/g for the FHBG probe. […] The animals were repeatedly imaged on day 1 (before rapamycin), day 2 (one dose post rapamycin) and day 5 (3 doses post rapamycin) of this imaging protocol, i.e. after 1 week of initial xenograft growth. […] In another group of 4 mice, xenografts expressing nTK(V119C)-FRB plus FKBP12-cTK were compared with control implants stably expressing nTK plus cTK only (also in a single vector).
All animal handling and care was performed in accordance with Stanford University Animal Research Committee guidelines. […] The cells were allowed to grow as tumors for 7 days (to ˜0.3-0.4 cm in diameter). On day 8 mice were tail vein injected with 200 μCi of [^18F]-FHBG after undergoing anesthesia with 2% isoflurane in oxygen at 2 L/min. Three hours later, mice were microPET imaged in a spread prone position in a FOCUS microPET scanner (Concorde Microsystems, Knoxville, Tenn.). […] Immediately after imaging the animals were intraperitoneally injected with 50 μg of rapamycin; 24 h later all the animals were re-subjected to microPET imaging as mentioned above. The animals were further injected with intraperitoneal 50 μg rapamycin for two more days at 24 h intervals and subjected to repeat microPET imaging. In a separate cohort of 4 control mice, the above temporal imaging studies were performed in an identical fashion except that no rapamycin was administered. […] This % ID/g is a measure of the amount of tracer accumulated in a given tissue site normalized to the injected amount and to the mass of the tissue examined. […] For statistical analysis, the 2-tailed Student t-test was used. Differences were considered significant at P<0.05.

Data set [5] has as its system cells. The following applies: 40 nM of rapamycin per well; cited from earlier work.
For data set [6], the target named is HSV1-sr39TK (Human herpesvirus 1, UniProt Q9QNF7, A168F/F161L/I160F/L159I/L169M). As to the kind of experiment: self-complementation of split TK fragments without attached proteins, TK enzyme uptake in 293T cells. It counts as cell-based, herpes simplex virus type 1. The text has this: To confirm or refute this finding we performed a separate PCA study using another pair of known interacting proteins, after replacing FRB and FKBP12 with Id and MyoD respectively (FIG. 2a, and FIG. 12). […] We tested the interaction of Id and MyoD upon transient co-expression of the fusion proteins nTK-Id and MyoD-cTK in 293T cells, followed by an in vitro TK enzyme cellular uptake assay to detect dimerization-assisted complementation of the TK fragments. Again, this same orientation of chimeras using Id and MyoD was used previously in PCAs with split Firefly luciferase and Renilla luciferase. We compared this with complementation obtained using the previous chimeras containing FRB and FKBP12, before and after addition of rapamycin. As negative controls we also assayed for TK activity upon single- and co-expression of nTK and cTK fragments without any attached proteins to check whether any measured TK activity might originate in either the N-terminal or C-terminal fragments of TK alone, or perhaps by their spontaneous self-complementation even without attached proteins. The results, shown in FIG. 12, confirmed the findings described above using the FRB/FKBP12/rapamycin system (FIGS. 9, 10, 12).

The target of data set [7] is FKBP12-cTK (human; herpes simplex virus type 1, UniProt P62942 1-108). Briefly: cell-based or functional assay.
[8] abbreviates: 293T cells, 24 h treatment, P<0.05.

Read-outs that look alike come from different tables or passages of the source.

Chain of FM (F36M) mutant FKBP12 (P62942 whole entry F37M): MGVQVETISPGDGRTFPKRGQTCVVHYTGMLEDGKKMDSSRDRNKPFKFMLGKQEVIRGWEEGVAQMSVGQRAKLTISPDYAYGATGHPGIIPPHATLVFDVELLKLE
Chain of FKBP12 (P62942 whole entry, added parts left off, the tested form may be a part): as the sequence (P62942 whole entry F37M) above, with M37F counted along it

Regarding `CC[C@@H]1/C=C(\C)C[C@H](C)C[C@H](OC)[C@H]2O[C@@](O)(C(=O)C(=O)N3CCCC[C@H]3C(=O)O[C@H](/C(C)=C/[C@@H]3CC[C@@H](O)[C@H](OC)C3)[C@H](C)[C@@H](O)CC1=O)[C@H](C)C[C@@H]2OC` [ascomycin], the “dissociation of complexes (fraction)” value in data set [1] (Five μM FK506, within 30 min) was “about two-thirds”. Besides, in data set [1] (up to 5 μM, after 24 hr of exposure), the “change of TK activity with increasing doses” value is on record as “incremental reduction of TK activity”. The “effect of increasing concentration on TK complementation” value in data set [2] was “reduction in TK complementation”. For the same molecule, the “smallest concentration required to initiate the competitive inhibition of rapamycin” value in data set [2] (0 to 16 μM) worked out at 0.5 µM.
With `CCCc1c(-c2ccc(O)cc2)nn(-c2ccc(O)cc2)c1-c1ccc(O)cc1` [PPT, 1,3,5-tris(4-hydroxyphenyl)-4-propyl-1H-pyrazole], the “level of intramolecular-folding-assisted complementation versus carrier control-treated cells” value in data set [3] (setting [8]) is “significantly higher”.
Consider `Cc1c(-c2ccc(O)cc2)nn(-c2ccc(O)cc2)c1-c1ccc(OCCN2CCCCC2)cc1` [MPP, methyl piperidinylethoxy pyrazole], for which the “level of intramolecular-folding-assisted complementation versus carrier control-treated cells” value in data set [3] (setting [8]) was “significantly higher”.
On to 4-hydroxytamoxifen [4-OHT], for which the “level of intramolecular-folding-assisted complementation versus carrier control-treated cells” value in data set [3] is “significantly higher”.
For the molecule `Nc1nc2c(ncn2CCC(CO)C[18F])c(=O)[nH]1` (stereo not shown) [FHBG, 9-(4-[^18F]-fluoro-3-hydroxymethylbutyl)-guanine], the figures for the “probe % ID/g in shoulder tumors” value in data set [4] (animals imaged in the prone position) and in data set [4] (animals imaged in the supine position) were 1.02 % ID/g and 0.89 % ID/g, respectively. Besides, in data set [4] (control implants stably expressing nTK plus cTK only, fifth day, with rapamycin), the “FHBG accumulation in control tumors” value is “minimal”. The “mean % ID/g for FHBG accumulation, background” value in data set [4] (mock transfected cells) turned out to be 0.28±0.10 % ID/g. Besides, the “mean % ID/g for FHBG accumulation” value in data set [4] (tumor of cells transfected with nTK(V119C)-FRB plus FKBP12-cTK, after 5 days of daily rapamycin) is 4.37±1.74 % ID/g.
As for `CO[C@H]1C[C@@H]2CC[C@@H](C)[C@@](O)(O2)C(=O)C(=O)N2CCCC[C@H]2C(=O)O[C@H]([C@H](C)C[C@@H]2CC[C@@H](O)[C@H](OC)C2)CC(=O)[C@H](C)/C=C(\C)[C@@H](O)[C@@H](OC)C(=O)[C@H](C)C[C@H](C)/C=C/C=C/C=C/1C` [rapamycin], in data set [5], the toxicity to cells result was “non-toxic”.

B1: nTK: N-terminal TK fragment comprising the amino acids Met-1 to Thr-265 (protein)
chain: MASYPCHQHASAFDQAARSRGHSNRRTALRPRRQQEATEVRLEQKMPTLLRVYIDGPHGMGKTTTTQLLVALGSRDDIVYVPEPMTYWRVLGASETIANIYTTQHRLDQGEISAGDAAVVMTSAQITMGMPYAVTDAVLAPHIGGEAGSSHAPPPALTLIFDRHPIAALLCYPAARYLMGSMTPQAVLAFVALIPPTLPGTNIVLGALPEDRHIDRLAKRQRPGERLDLAMLAAIRRVYGLLANTVRYLQCGGSWREDWGQLSGT
As to B1, the “TK activity upon single- or co-expression of fragments without attached proteins” value in data set [6] was “no activity”.

B2: cTK: C-terminal TK fragment comprising the amino acids Ala-266 to Asn-376 (protein)
chain: AVTPQGAEPQSNAGPRPHIGETLFTLFRAPELLAPNGDLYNVFAWALDVLAKRLRPMHVFILDYDQSPAGCRDALLQLTSGMVQTHVTTPGSIPTICDLARTFAREMGEAH
With B2, in data set [6], the “TK activity upon single- or co-expression of fragments without attached proteins” value is on record as “no activity”.

B3: nTK-FRB (other)
chain: MASYPCHQHASAFDQAARSRGHSNRRTALRPRRQQEATEVRLEQKMPTLLRVYIDGPHGMGKTTTTQLLVALGSRDDIVYVPEPMTYWRVLGASETIANIYTTQHRLDQGEISAGDAAVVMTSAQITMGMPYAVTDAVLAPHIGGEAGSSHAPPPALTLIFDRHPIAALLCYPAARYLMGSMTPQAVLAFVALIPPTLPGTNIVLGALPEDRHIDRLAKRQRPGERLDLAMLAAIRRVYGLLANTVRYLQCGGSWREDWGQLSGTGGGGSILWHEMWHEGLEEASRLYFGERNVKGMFEVLEPLHAMMERGPQTLKETSFNQAYGRDLMEAQEWCRKYMKSGNVKDLTQAWDLYYHVFRRISK
In the case of B3, in data set [7], the “complemented TK activity in the absence of rapamycin, against mock transfection, 293T cells” value is 2.3 fold above mock transfection levels; the “relative gain in complemented TK activity after rapamycin administration, 293T cells” value was roughly 3 fold induction; the “split TK complementation in SKBr3 human breast cancer cells, with rapamycin” value was roughly 3 fold rise; the “split TK complementation in SKOV3 human ovarian cancer cells, with rapamycin” value was roughly 3 fold rise.
